How the values were obtained:
[1] = molecular target: T1, His-SiaBb1 (Bifidobacterium bifidum, UniProt A0ABM7ET56); assay: fluorescence sialidase assay; type: biochemical; settings: 50 μM recombinant protein, 30 min
T1 construct: gene BBBF_1779; His-tagged; native precursor 1,795 aa with Sec signal and C-terminal TM

[2] = molecular target: T2, His-Sia (sialidase domain of SiaBb2, aa 187 to 553) (Bifidobacterium bifidum, UniProt A0A1Y1C8G4); assay: SPR, His-Sia immobilized on CM5 chip; settings: HBS-EP pH 7.4, 25°C; binding decreased by 5 mM Neu5Ac2en; also glycoarray positive
T2 construct: conserved sialidase domain aa 187-553 of 835 aa precursor; N-terminal 6xHis tag; recombinant; biotinylated for glycoarray, immobilized on CM5 chip for SPR; GH33

[3] = molecular target: T3, His-SiaBb2 (Bifidobacterium bifidum, UniProt A0A1Y1C8G4); assay: inhibition of sialidase activity, dose response; type: biochemical; settings: maximal inhibition at […]
T3 construct: gene sia2; N-terminal 6xHis tag; native precursor 835 aa with Sec signal and C-terminal TM
T3 sequence (A0A1Y1C8G4 37-810): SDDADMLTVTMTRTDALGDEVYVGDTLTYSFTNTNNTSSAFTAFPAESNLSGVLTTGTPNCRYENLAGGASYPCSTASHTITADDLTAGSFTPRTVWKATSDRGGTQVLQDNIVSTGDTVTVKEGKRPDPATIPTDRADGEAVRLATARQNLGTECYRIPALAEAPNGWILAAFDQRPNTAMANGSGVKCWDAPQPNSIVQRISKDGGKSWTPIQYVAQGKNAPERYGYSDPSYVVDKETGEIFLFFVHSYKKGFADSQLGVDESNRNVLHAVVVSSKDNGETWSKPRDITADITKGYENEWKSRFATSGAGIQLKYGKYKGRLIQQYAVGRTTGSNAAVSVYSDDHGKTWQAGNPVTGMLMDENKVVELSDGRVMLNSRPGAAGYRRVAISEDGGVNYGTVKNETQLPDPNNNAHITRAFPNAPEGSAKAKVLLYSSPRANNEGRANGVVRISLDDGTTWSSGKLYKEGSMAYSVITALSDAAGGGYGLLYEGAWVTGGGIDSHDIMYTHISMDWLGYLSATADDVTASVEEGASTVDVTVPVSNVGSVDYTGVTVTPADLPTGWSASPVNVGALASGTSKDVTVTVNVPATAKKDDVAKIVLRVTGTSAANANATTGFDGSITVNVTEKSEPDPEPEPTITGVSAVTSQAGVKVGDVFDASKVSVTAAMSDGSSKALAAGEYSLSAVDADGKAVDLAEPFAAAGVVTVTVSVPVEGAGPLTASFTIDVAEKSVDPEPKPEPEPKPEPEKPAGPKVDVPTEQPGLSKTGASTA

T1 sequence (A0ABM7ET56 40-1795 limits assumed): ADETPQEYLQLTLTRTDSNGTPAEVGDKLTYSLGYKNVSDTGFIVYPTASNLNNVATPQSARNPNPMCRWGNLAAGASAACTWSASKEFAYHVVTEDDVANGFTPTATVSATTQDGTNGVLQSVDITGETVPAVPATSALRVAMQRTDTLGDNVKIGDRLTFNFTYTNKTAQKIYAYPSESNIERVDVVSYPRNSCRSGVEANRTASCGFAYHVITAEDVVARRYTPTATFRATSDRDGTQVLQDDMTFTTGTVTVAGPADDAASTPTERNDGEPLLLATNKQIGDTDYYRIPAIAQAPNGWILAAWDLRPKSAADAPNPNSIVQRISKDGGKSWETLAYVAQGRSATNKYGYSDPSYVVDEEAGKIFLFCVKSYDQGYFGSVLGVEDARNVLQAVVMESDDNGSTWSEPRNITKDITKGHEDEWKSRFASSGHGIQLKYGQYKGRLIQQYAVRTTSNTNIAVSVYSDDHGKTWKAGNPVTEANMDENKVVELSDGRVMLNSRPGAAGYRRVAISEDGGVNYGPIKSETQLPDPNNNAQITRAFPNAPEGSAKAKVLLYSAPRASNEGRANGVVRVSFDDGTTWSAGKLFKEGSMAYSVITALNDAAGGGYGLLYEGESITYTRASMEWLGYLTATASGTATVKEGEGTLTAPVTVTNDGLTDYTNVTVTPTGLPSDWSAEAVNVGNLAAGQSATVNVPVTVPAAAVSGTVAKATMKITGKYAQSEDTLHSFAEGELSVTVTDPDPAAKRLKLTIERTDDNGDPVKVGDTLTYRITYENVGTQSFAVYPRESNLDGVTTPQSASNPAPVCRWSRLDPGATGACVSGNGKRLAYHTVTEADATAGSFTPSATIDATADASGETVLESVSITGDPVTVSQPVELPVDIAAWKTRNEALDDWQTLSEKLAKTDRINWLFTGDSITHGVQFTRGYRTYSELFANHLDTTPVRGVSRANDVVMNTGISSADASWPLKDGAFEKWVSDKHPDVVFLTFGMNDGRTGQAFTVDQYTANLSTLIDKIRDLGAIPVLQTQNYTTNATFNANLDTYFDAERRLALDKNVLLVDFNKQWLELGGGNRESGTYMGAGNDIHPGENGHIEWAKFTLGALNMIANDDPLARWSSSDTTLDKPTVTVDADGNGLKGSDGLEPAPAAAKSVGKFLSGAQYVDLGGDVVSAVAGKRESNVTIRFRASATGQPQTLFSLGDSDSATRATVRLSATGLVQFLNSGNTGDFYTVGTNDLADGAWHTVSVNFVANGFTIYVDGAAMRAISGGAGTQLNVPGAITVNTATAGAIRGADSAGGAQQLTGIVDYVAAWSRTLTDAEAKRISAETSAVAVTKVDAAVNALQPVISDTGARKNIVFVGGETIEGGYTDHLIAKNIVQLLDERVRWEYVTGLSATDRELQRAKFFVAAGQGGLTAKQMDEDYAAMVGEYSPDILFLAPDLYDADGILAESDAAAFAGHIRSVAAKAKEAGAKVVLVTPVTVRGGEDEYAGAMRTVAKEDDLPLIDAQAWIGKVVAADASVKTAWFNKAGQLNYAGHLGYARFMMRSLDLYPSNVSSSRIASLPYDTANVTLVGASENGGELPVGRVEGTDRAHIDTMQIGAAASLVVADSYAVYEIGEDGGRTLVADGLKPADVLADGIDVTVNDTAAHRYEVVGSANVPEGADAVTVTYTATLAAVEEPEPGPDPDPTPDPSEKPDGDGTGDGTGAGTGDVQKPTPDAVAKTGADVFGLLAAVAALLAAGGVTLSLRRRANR

For `CC(=O)N[C@H]1[C@H]([C@H](O)[C@H](O)CO)OC(Oc2ccc3c(C)cc(=O)oc3c2)(C(=O)O)C[C@@H]1O` (stereo partly drawn) [4-MU-Neu5Ac, 2′-(4-methylumbelliferyl)-α-D-N-acetylneuraminic acid], the fluorescence sialidase assay [1] was “all sialidase peptides with the exception of His-ΔSia showed time-dependent enzymatic activity”.
`CC(=O)N[C@H]1[C@H]([C@H](O)[C@H](O)CO)O[C@@](OC[C@H]2O[C@@H](O[C@H]3[C@H](O)[C@@H](O)C(O)O[C@@H]3CO)[C@H](O)[C@@H](O)[C@H]2O)(C(=O)O)C[C@@H]1O` (stereo partly drawn) [6'SL] was tested, and the “MR at 10 μM (analyte/ligand, end of association)” value [2] was 1.3.
In the case of `CC(=O)N[C@H]1[C@H]([C@H](O)[C@H](O)CO)OC(C(=O)O)=C[C@@H]1O` [Neu5Ac2en, N-acetyl-2,3-didehydro-2-deoxyneuraminic acid], the “inhibition of sialidase activity, dose response” value [3] is reported as “Neu5Ac2en treatment inhibited the sialidase activity of His-SiaBb2 in a dose-dependent manner”.
